Experimental data from the supplement of paper PMC3974653.
Structures can show the parent of a compound that is named as a salt.

What was measured:
Conditions in all cases: (24 or 48 h)
[1] = tested on: MTT (mouse pheochromocytoma); assay: IC50 of cell viability (ATP content); AC50 where efficacy is positive
[2] = tested on: MTT (mouse pheochromocytoma); assay: efficacy (maximal response) relative to doxorubicin = -100% and DMSO = 0%; higher = less inhibition of viability
[3] = tested on: MTT (mouse pheochromocytoma); assay: IC50 of cell viability (ATP content)
How it was run: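 Library compounds in DMSO (23 nl by pintool, 8 concentrations, final 0.5 nM to 46 µM) were applied for 24 or 48 hrs to MTT mouse pheochromocytoma cells that had been cultured overnight at 37°C, 5% CO2 in white 1536-well plates. Cell viability was measured by CellTiter-Glo ATP luminescence, read after 15 minutes, with positive-control wells set at 100% and DMSO wells at 0%. A four-parameter logistic fit of the normalised signals yielded the IC50.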

Row | IC50 of cell viability [1] | IC50 of cell viability [3] | SMILES | efficacy [2]
1 | 15 µM |  | CCCCCCCCCCCC[N+](C)(C)CCOc1ccccc1 [Domiphen bromide] | -99.3%
2 | 10.6 µM |  | CC(C)(C)CC(C)(C)c1ccc(OCCOCC[N+](C)(C)Cc2ccccc2)cc1 [Benzethonium chloride] | -94.4%
3 | 8.41 µM |  | CC(C)OC(=O)Nc1ccc2[nH]c(-c3cscn3)nc2c1 [CAMBENDAZOLE] | -45.2%
4 | 2.11 µM |  | [Zn++].[O-]N1\C=C/C=C\C1=S.[O-]N2\C=C/C=C\C2=S [Zinc pyrithione] | -90.6%
5 | 0.376 µM |  | COc1cc(NCc2ccc3nc(N)nc(N)c3c2C)cc(OC)c1OC [TRIMETREXATE GLUCURONATE] | -50.7%
6 | 26.6 µM |  | CN(CCCN1c2ccccc2CCc2ccccc21)CC(=O)c1ccc(Cl)cc1 [LOFEPRAMINE HYDROCHLORIDE] | -62.9%
7 | 0.376 µM |  | CCCCCCCCCCCC[n+]1ccc2ccccc2c1 [LAURYL ISOQUINOLINIUM BROMIDE] | -31.3%
8 | 11.9 µM |  | COCC(=O)O[C@]1(CCN(C)CCCc2nc3ccccc3[nH]2)CCc2cc(F)ccc2[C@@H]1C(C)C.Cl.Cl [Mibefradil dihydrochloride] | -97.9%
9 | 21.1 µM |  | C[S+](CC[C@H](N)C(=O)O)C[C@H]1O[C@@H](n2cnc3c(N)ncnc32)[C@H](O)[C@@H]1O (stereo partly specified) [ADEMETIONINE] | -49.1%
10 | 1.33 µM |  | NC/1=N/C(=O)N(/C=N1)[C@@H]2O[C@H](CO)[C@@H](O)[C@H]2O [Azacitidine] | -71.2%
11 | 6.68 µM |  | COC(=O)C12CCC(C)(C)CC1C3C(=O)\C=C4/C(C)(CCC5C(C)(C)C(=O)\C(=C/C45C)C#N)C3(C)CC2 (stereo unspecified) [RTA 402] | -108%
12 | 15 µM |  | Cc1cc(CC(C)CC(C)(C)C)n(O)c(=O)c1 (stereo unspecified) [PIROCTONE OLAMINE] | -49%
13 | 8.41 µM |  | CN(C)C1=CC=C(C=C1)C(C2=CC=CC=C2)=C/3\C=C/C(/C=C3)=[N+](C)C [Malachite Green Oxalate] | -61.3%
14 | 3.35 µM |  | Cc1cc(O)c2c3c4c(cc(O)c13)C(C)(C)C(=O)c1c(O)cc(O)c(c1-4)C2=O [HELIOMYCINUM] | -46.4%
15 | 2.11 µM |  | CC[C@@]1(O)C[C@H](O[C@H]2C[C@@H](N(C)C)[C@@H](O[C@H]3C[C@@H](O)[C@@H](O[C@H]4CCC(=O)[C@@H](C)O4)[C@@H](C)O3)[C@@H](C)O2)c2c(cc3c(c2O)C(=O)c2c(O)cccc2C3=O)[C@H]1C(=O)OC [ACLARUBICIN HYDROCHLORIDE] | -41.5%
16 | 4.53 µM |  | CC(C)NC(=N)NC(=N)Nc1ccc(Cl)cc1 [Proguanil hydrochloride] | -59%
17 | 2.66 µM |  | CC(=O)C1(O)Cc2c(O)c3c(c(O)c2C(OC2CC(N)C(O)C(C)O2)C1)C(=O)c1c(O)cccc1C3=O (stereo unspecified) [Carminomycin] | -48.5%
18 | 16.8 µM |  | O=S(=O)([O-])c1ccc2c(/N=N/c3ccc(S(=O)(=O)[O-])c4ccccc34)c(O)c(S(=O)(=O)[O-])cc2c1 [FD & C Red Dye No. 2] | -95.8%
19 | 13.3 µM |  | CN/C(=N/C#N)NCCSCc1nc[nH]c1C [CIMETIDINE] | -40.4%
20 | 6.68 µM |  | CN(C)C1=CC=C(C=C1)C(=C2\C=C/C(/C=C2)=[N+](/C)C)\C3=C(O)C(=CC4=CC(=CC=C34)S([O-])(=O)=O)S([O-])(=O)=O [LISSAMINE GREEN B] | -54.2%
21 | 18.8 µM |  | OC[C@H]1O[C@@H](n2cnc3c(S)ncnc32)[C@H](O)[C@@H]1O [Thionosine] | -85.4%
22 | 13.3 µM |  | Cc1nc2ccccc2n1Cc1ccc(Cl)cc1 [Chlormidazole] | -59%
23 |  | > 46 µM | CC[C@H]1OC(=O)[C@H](C)[C@@H](O[C@H]2C[C@@](C)(OC)[C@@H](O)[C@H](C)O2)[C@H](C)[C@@H](O[C@@H]2O[C@H](C)C[C@H](N(C)C)[C@H]2O)[C@](C)(O)C[C@@H](C)[C@@H]2N[C@@H](COCCOC)O[C@H]([C@H]2C)[C@]1(C)O [DIRITHROMYCIN] | 
24 |  | > 46 µM | CSCCC(N)C(=O)O (stereo unspecified) [METHIONINE] | 

Row | IC50 of cell viability [1] | IC50 of cell viability [3] | SMILES | efficacy [2]
25 |  | > 46 µM | O=C1NCCN1c1ncc([N+](=O)[O-])s1 [Niridazole] | 
26 |  | > 46 µM | C=CCN1C(=O)C(CC(C)C)NC1=S (stereo unspecified) [Albutoin] | 
27 |  | > 46 µM | Nc1c(Br)cc(Br)cc1CNC1CCC(O)CC1 (stereo unspecified) [AMBROXOL HYDROCHLORIDE] | 
28 |  | > 46 µM | CCOC(=O)c1ccccc1O [Ethyl salicylate] | 
29 |  | > 46 µM | COc1cc(C(=O)OC(COCCC(C)C)CN2CCOCC2)cc(OC)c1OC (stereo unspecified) [Amoproxan] | 
30 |  | > 46 µM | NC(=O)[C@H]1O[C@@H](O)[C@H](O)[C@@H](O)[C@@H]1O [GLUCURONAMIDE] | 
31 |  | > 46 µM | CC(=O)Nc1ccc(CC(=O)O)cc1 [Actarit] | 
32 |  | > 46 µM | N=C(N)NCCCC(NC(=O)C1CCCN1C(=O)C1CSSCC(N)C(=O)NC(Cc2ccc(O)cc2)C(=O)NC(Cc2ccccc2)C(=O)NC(CCC(N)=O)C(=O)NC(CC(N)=O)C(=O)N1)C(=O)NCC(N)=O (stereo unspecified) [[8-Arginine]vasopressin] | 
33 |  | > 46 µM | COc1cc(C(=O)N2CCOCC2)cc(OC)c1OC [Trimetozine] | 
34 |  | > 46 µM | CCCN(CCC)c1c([N+](=O)[O-])cc([S+](N)(=O)[O-])cc1[N+](=O)[O-] [Oryzalin] | 
35 |  | > 46 µM | CC[C@@]1(O)CC2CN(CCC3=C([NH]C4=CC=CC=C34)[C@](C2)(C(=O)OC)C5=C(OC)C=C6N(C)C7[C@](O)([C@H](O)[C@]8(CC)\C=C/CN9CC[C@@]7([C@H]89)C6=C5)C(N)=O)C1 (stereo partly specified) [Vindesine Sulfate Salt] | 
36 |  | > 46 µM | CC(C)(C)c1ccc(C(O)CCCN2CCC(C(O)(c3ccccc3)c3ccccc3)CC2)cc1 (stereo unspecified) [Terfenadine] | 
37 |  | > 46 µM | Sc1nc2ccccc2s1 [2-Mercaptobenzothiazole] | 
38 |  | > 46 µM | CC(C)(C)C(O)C=Cc1ccc2c(c1)OCO2 (stereo unspecified) [Stiripentol] | 
39 |  | > 46 µM | N=C(N)c1ccc(OCCCOc2ccc(C(=N)N)cc2)cc1 [Propamidine] | 
40 |  | > 46 µM | Cc1c[nH]c2ccccc12 [SKATOLUM] | 
41 |  | > 46 µM | NC/1=N/C(=O)N/C=C1F [Flucytosine] | 
42 |  | > 46 µM | COc1cc(N[C@@H](C)CCCN)c2ncccc2c1 [Primaquine diphosphate] | 
43 |  | > 46 µM | O=C(c1ccc(F)cc1)C1CCN(CCn2c(=O)[nH]c3ccccc3c2=O)CC1 [KETANSERIN] | 
44 |  | > 46 µM | N[C@@H](CO)C(=O)NNCc1ccc(O)c(O)c1O [Benserazide hydrochloride] | 
45 |  | > 46 µM | CCCCCCCCCCCCCCCCN [Hetaflur] | 
46 |  | > 46 µM | CN1CCN(C(=O)C2CCCCC2)CC1 [Pexantel] | 
47 |  | > 46 µM | COc1cc(O)c(C(=O)c2ccccc2)cc1[S+](=O)([O-])O [Sulisobenzone] | 

Row | SMILES | IC50 of cell viability [1] | IC50 of cell viability [3] | efficacy [2]
48 | Oc1cccc[c]1[Hg][Cl] [MERCUFENOL CHLORIDE] | 2.99 µM |  | -83.5%
49 | COC/1=C/C=C2\C(=C/C1=O)[C@H](CCC3=CC(=C(OC)C(=C23)OC)OC)NC(C)=O [Colchicine] | 0.473 µM |  | -84.8%
50 | O=[N+]([O-])C(Br)(CO)CO [Bronopol] | 15 µM |  | -58.4%
51 | CC(=O)[O][Hg][c]1ccccc1 [PHENYLMERCURIC ACETATE] | 2.37 µM |  | -93.4%
52 | [Hg+2] [Mercuric chloride] | 2.37 µM |  | -90.3%
53 | C[CH2][Hg][S]c1ccccc1C(=O)[O-].[Na+] [THIMEROSAL] | 2.99 µM |  | -86.9%
54 | CC[n+]1c(-c2ccccc2)c2cc(N)ccc2c2ccc(N)cc21.[Br-] [HOMIDIUM BROMIDE] | 11.9 µM |  | -34.1%
55 | NCc1cccnc1 [Picolamina] |  | > 46 µM | 
56 | Cc1ccc2c(c1)[C@]13CCCC[C@@H]1[C@@H](C2)N(C)CC3 [Dimemorfan phosphate] |  | > 46 µM | 
57 | C[C@]12CCC3C(CC(=C)C\4=C\C(=O)\C=C/[C@@]34C)C1CCC2=O (stereo partly specified) [EXEMESTANE] |  | > 46 µM | 
58 | CC(C)=CCN1CC[C@@]2(C)c3cc(O)ccc3C[C@@H]1C2C (single isomer, unassigned; (-)) [(-)-Pentazocine] |  | > 46 µM | 
59 | COC(=O)c1ccccc1C(=O)OC [Dimethyl phthalate] |  | > 46 µM | 
60 | C[N+]1(C)[C@@H]2C[C@H](OC(=O)[C@@H](CO)c3ccccc3)C[C@@H]1[C@H]1O[C@H]12 [Proscomide] |  | > 46 µM | 
61 | CN(C)C(=O)Oc1ccc[n+](C)c1.[Br-] [PYRIDOSTIGMINE BROMIDE] |  | > 46 µM | 
62 | COc1cc2c(cc1OC)C1CC(=O)C(CC(C)C)CN1CC2 (stereo unspecified) [Tetrabenazine] |  | > 46 µM | 
